Results reported in patent US8410153B2, “Naphthalene isoxazoline invertebrate pest control agents” (E.I. du Pont de Nemours and Company, priority 2007, dated 2013).

Tests used:
Assay type in all cases: in vivo
[1] = test system: fall armyworm (Spodoptera frugiperda); assay: Test B: control of fall armyworm on corn (maize) plant, foliar spray; conditions: sprayed at 50 ppm
Description: (§1) Test compounds were formulated using a solution containing 10% acetone, 90% water and 300 ppm X-77™ Spreader Lo-Foam Formula non-ionic surfactant containing alkylarylpolyoxyethylene, free fatty acids, glycols and isopropanol (Loveland Industries, Inc. Greeley, Colo., USA). The formulated compounds were applied in 1 mL of liquid through a SUJ2 atomizer nozzle with ⅛ JJ custom body (Spraying Systems Co. Wheaton, Ill., USA) positioned 1.27 cm (0.5 inches) above the top of each test unit. All experimental compounds in these tests were sprayed at 50 ppm, and the test was replicated three times. After spraying of the formulated test compound, each test unit was allowed to dry for 1 h and then a black, screened cap was placed on top. The test units were held for 6 days in a growth chamber at 25° C. and 70% relative humidity. Plant feeding damage was then visually assessed based on foliage consumed, and a pest mortality rating was also counted and calculated for each test unit.
For evaluating control of fall armyworm (Spodoptera frugiperda) the test unit consisted of a small open container with a 4-5-day-old corn (maize) plant inside. This was pre-infested (using a core sampler) with 10-15 1-day-old larvae on a piece of insect diet. Test compounds were formulated and sprayed at 50 ppm as described for Test A and replicated three times. After spraying, the test units were maintained in a growth chamber and then the control efficacy was rated for each test unit as described for Test A.

[2] = test system: diamondback moth (Plutella xylostella); assay: Test A: control of diamondback moth on radish plant, foliar spray; conditions: sprayed at 50 ppm, held 6 days
From the text: For evaluating control of diamondback moth (Plutella xylostella) the test unit consisted of a small open container with a 12-14-day-old radish plant inside. This was pre-infested with about 50 neonate larvae that were dispensed into the test unit via corncob grits using a bazooka inoculator. The larvae moved onto the test plant after being dispensed into the test unit.
as §1

[3] = test system: western flower thrips (Frankliniella occidentalis); assay: Test E: control of western flower thrips on Soleil bean plant, contact and/or systemic; conditions: held 6 days
Description: as §1
For evaluating control of the western flower thrips (Frankliniella occidentalis) through contact and/or systemic means, the test unit consisted of a small open container with a 5-7-day-old Soleil Bean plant inside. Test compounds were formulated and sprayed as described for Test A. All experimental compounds in these tests were sprayed at 250 or 50 ppm as noted, and the test was replicated three times. After spraying, the test units were allowed to dry for 1 h, 22-27 adult thrips were added to each unit and then a black, screened cap was placed on top. The test units were held for 6 days at 25° C. and 45-55% relative humidity. A mortality rating was assessed along with a plant damage rating for each test unit.

Measured: levels of control efficacy (20% or less feeding damage or 80% or more mortality)

CC(NC(=O)c1ccc(C2=NOC(c3cc(Br)cc(C(F)(F)F)c3)(C(F)(F)F)C2)c2ccccc12)C(=O)NCC(F)(F)F (mixture of isomers) [Compound 140]
very good to excellent: [1] | [2] | [3]; sprayed at 50 ppm

CC(NC(=O)c1ccc(C2=NOC(c3cc(Cl)cc(Cl)c3)(C(F)(F)F)C2)c2ccccc12)C(=O)NCC(F)(F)F (mixture of isomers) [Compound 16]
very good to excellent: [1] | [2] | [3]; sprayed at 50 ppm | [3]; sprayed at 250 ppm

CC(C)(O)CNC(=O)c1ccc(C2=NOC(c3cccc(C(F)(F)F)c3)(C(F)(F)F)C2)c2ccccc12 (racemic) [Compound 43]
very good to excellent: [1] | [2] | [3]; sprayed at 250 ppm

CNC(=O)C(C)NC(=O)c1ccc(C2=NOC(c3cc(Br)cc(C(F)(F)F)c3)(C(F)(F)F)C2)c2ccccc12 (mixture of isomers) [Compound 141]
very good to excellent: [1] | [2] | [3]; sprayed at 50 ppm

CSCCNC(=O)c1ccc(C2=NOC(c3cc(Br)cc(C(F)(F)F)c3)(C(F)(F)F)C2)c2ccccc12 (racemic) [Compound 50]
very good to excellent: [1] | [2] | [3]; sprayed at 50 ppm | [3]; sprayed at 250 ppm

CCSCCNC(=O)c1ccc(C2=NOC(c3cc(C(F)(F)F)cc(C(F)(F)F)c3)(C(F)(F)F)C2)c2ccccc12 (stereo not drawn) [Compound 92]
very good to excellent: [1] | [2] | [3]; sprayed at 50 ppm | [3]; sprayed at 250 ppm

CSCCNC(=O)c1ccc(C2=NOC(c3cccc(C(F)(F)F)c3)(C(F)(F)F)C2)c2ccccc12 (racemic) [Compound 34]
very good to excellent: [1] | [2] | [3]; sprayed at 50 ppm | [3]; sprayed at 250 ppm

CC(NC(=O)c1ccc(C2=NOC(c3cc(C(F)(F)F)cc(C(F)(F)F)c3)(C(F)(F)F)C2)c2ccccc12)C(=O)NC(C)C(F)(F)F (stereo not drawn) [Compound 121]
very good to excellent: [1] | [2] | [3]; sprayed at 250 ppm

CC(C)(C)NC(=O)CNC(=O)c1ccc(C2=NOC(c3cc(Cl)cc(Cl)c3)(C(F)(F)F)C2)c2ccccc12 (stereo not drawn) [Compound 24]
very good to excellent: [1] | [2] | [3]; sprayed at 250 ppm

CC(C)CNC(=O)CNC(=O)c1ccc(C2=NOC(c3cc(Cl)cc(Cl)c3)(C(F)(F)F)C2)c2ccccc12 (stereo not drawn) [Compound 6]
very good to excellent: [1] | [2] | [3]; sprayed at 50 ppm | [3]; sprayed at 250 ppm

CCCNC(=O)CNC(=O)c1ccc(C2=NOC(c3cc(C(F)(F)F)cc(C(F)(F)F)c3)(C(F)(F)F)C2)c2ccccc12 (stereo not drawn) [Compound 101]
very good to excellent: [1] | [2] | [3]; sprayed at 50 ppm

C[S+]([O-])CCNC(=O)c1ccc(C2=NOC(c3cc(F)cc(C(F)(F)F)c3)(C(F)(F)F)C2)c2ccccc12 (mixture of isomers) [Compound 133]
very good to excellent: [1] | [2] | [3]; sprayed at 50 ppm | [3]; sprayed at 250 ppm

O=C(CNC(=O)c1ccc(C2=NOC(c3cc(Br)cc(C(F)(F)F)c3)(C(F)(F)F)C2)c2ccccc12)NCC(F)(F)F (racemic) [Compound 52]
very good to excellent: [1] | [2] | [3]; sprayed at 50 ppm | [3]; sprayed at 250 ppm

CNC(=O)C(C)NC(=O)c1ccc(C2=NOC(c3cc(F)cc(C(F)(F)F)c3)(C(F)(F)F)C2)c2ccccc12 (mixture of isomers) [Compound 138]
very good to excellent: [1] | [2] | [3]; sprayed at 50 ppm

CSCC(C)NC(=O)c1ccc(C2=NOC(c3cc(C(F)(F)F)cc(C(F)(F)F)c3)(C(F)(F)F)C2)c2ccccc12 (mixture of isomers) [Compound 60]
very good to excellent: [1] | [2] | [3]; sprayed at 250 ppm

CC(CO)NC(=O)c1ccc(C2=NOC(c3cc(Cl)cc(Cl)c3)(C(F)(F)F)C2)c2ccccc12 (mixture of isomers) [Compound 31]
very good to excellent: [1] | [2] | [3]; sprayed at 50 ppm | [3]; sprayed at 250 ppm

CC(NC(=O)CNC(=O)c1ccc(C2=NOC(c3cc(Cl)cc(Cl)c3)(C(F)(F)F)C2)c2ccccc12)C(F)(F)F (mixture of isomers) [Compound 122]
very good to excellent: [1] | [2] | [3]; sprayed at 50 ppm | [3]; sprayed at 250 ppm

CS(=O)(=O)CCNC(=O)c1ccc(C2=NOC(c3cc(Cl)cc(C(F)(F)F)c3)(C(F)(F)F)C2)c2ccccc12 (stereo not drawn) [Compound 66]
very good to excellent: [1] | [2] | [3]; sprayed at 50 ppm | [3]; sprayed at 250 ppm

O=C(CNC(=O)c1ccc(C2=NOC(c3cc(C(F)(F)F)cc(C(F)(F)F)c3)(C(F)(F)F)C2)c2ccccc12)NCC(F)(F)F (racemic) [Compound 37]
very good to excellent: [1] | [2] | [3]; sprayed at 50 ppm | [3]; sprayed at 250 ppm

CC(NC(=O)c1ccc(C2=NOC(c3cc(C(F)(F)F)cc(C(F)(F)F)c3)(C(F)(F)F)C2)c2ccccc12)C(=O)NCC(F)(F)F (stereo not drawn) [Compound 85]
very good to excellent: [1] | [2] | [3]; sprayed at 50 ppm | [3]; sprayed at 250 ppm
